Measured values published in ChEMBL document CHEMBL1158885, “A new sesquiterpenoid quinone and other related compounds from the Okinawan marine sponge Dactylospongia elegans” (J Nat Prod, 2003).

System: HeLa
Test: Cytotoxicity against human HeLa cells
Assay type: functional, cell-based

C=C1CCC[C@H]2[C@]3(C)OC4=C(C[C@]3(C)CC[C@]12C)C(=O)C(OC)=CC4=O [NEODACTYLOQUINONE]
IC50: 86 µM
